Values of other authors in article PMC2074590 (British Journal of Cancer, 1996).

Key:
breast cancer cells = system: breast cancer cells; parameters: method as in Wakeling and Bowler, 1987, 1988; settings: ref Wakeling and Bowler, 1987, 1988; cited from earlier work
advanced breast cancer = settings: ref Cole et al., 1971, Patterson et al., 1981; cited from earlier work
[1] = system: Ki67, ER, PgR, pS2 in primary breast cancer; settings: similar clinical experiments; ref Howell et al., 1988; Roberston et al., 1991; Clarke et al., 1993; Nicholson et al., 1994; cited from earlier work
[2] = ref Willemse et al., 1990; cited from earlier work

## CCCCN(C)C(=O)CCCCCCCCCC[C@@H]1Cc2cc(O)ccc2[C@H]2CC[C@]3(C)[C@@H](O)CC[C@H]3[C@H]12 [ICI 164384, reference compound]
Breast cancer cells
  Potency as inhibitor of cell growth in vitro relative to tamoxifen: up to two orders of magnitude more potent than tamoxifen

## CC/C(=C(\c1ccccc1)c1ccc(OCCN(C)C)cc1)c1ccccc1 [tamoxifen, reference compound]
Advanced breast cancer
  Median duration of remission: about 18 months
[1]
  ER expression: no change in ER expression
  PgR expression: slightly increased PgR expression

## CC(=O)O[C@]1(C(C)=O)CC[C@H]2[C@@H]3C=C(C)C4=CC(=O)CC[C@]4(C)[C@H]3CC[C@@]21C [megestrol acetate]
[2]
  Patients with weight gain of > 5% of body weight: 25%
